Measured values as given in paper PMC12566046, “Arylpiperazinyl-Benzocycloheptapyrrole-Carboxamides Endowed with Dual Anticancer and Antiviral Activities” (Molecules, 2025).
Read-outs that look alike come from different tables or passages of the source.

Experiments:
in vitro = settings: dog
[1] = test system: SARS-CoV-2 VR PV10734 (strain Milano); assay: microbe, parasite or virus in culture; format: cell-based; settings: for EC50: Severe acute respiratory syndrome coronavirus 2; for selectivity index (SI): CC50/EC50
[2] = Cytotoxicity on uninfected Huh-7 cells (WST-8, crystal violet); settings: human, uninfected Huh-7 cells
[3] = test system: NCI-H23 (non-small cell lung cancer cell line); assay: NCI-60 single-dose assay; format: cell-based, human; settings: Homo sapiens, NCI-H23, read-out: growth inhibition (GI%) and cytotoxicity (negative values)
In short: (§1)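 One-dose NCI-60 screen measuring cytotoxic activity; compounds meeting pre-set threshold inhibition criteria in a minimum number of lines advanced to the five-dose assay.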

[4] = test system: HL-60(TB) (leukemia cell line); assay: NCI-60 single-dose assay; format: cell-based, human; settings: for growth inhibition (GI%) and cytotoxicity (negative values): human; for inhibition at 10 µM: Homo sapiens, HL-60, read-out: growth inhibition (GI%) and cytotoxicity (negative values)
[5] = test system: HCC-2998 (colon cancer cell line); assay: NCI-60 single-dose assay; format: cell-based, human; settings: for inhibition at 10 µM: Homo sapiens, HCC 2998, read-out: growth inhibition (GI%) and cytotoxicity (negative values); for growth inhibition (GI%) and cytotoxicity (negative values): human
In short: as §1

[6] = test system: RXF 393 (renal cancer cell line); assay: NCI-60 single-dose assay; format: cell-based, human; settings: Homo sapiens, RXF 393, read-out: growth inhibition (GI%) and cytotoxicity (negative values)
In short: as §1

[7] = test system: SW-620 (colon cancer cell line); assay: NCI-60 single-dose assay; format: cell-based, human; settings: Homo sapiens, SW-620, read-out: growth inhibition (GI%) and cytotoxicity (negative values)
In short: as §1

[8] = test system: SK-MEL-5 (melanoma cell line); assay: NCI-60 single-dose assay; format: cell-based, human; settings: human
In short: as §1

[9] = test system: MALME-3M (melanoma cell line); assay: NCI-60 single-dose assay; format: cell-based, human; settings: Homo sapiens, Malme-3M, read-out: growth inhibition (GI%) and cytotoxicity (negative values)
In short: as §1

[10] = test system: KM12 (colon cancer cell line); assay: NCI-60 single-dose assay; format: cell-based, human; settings: Homo sapiens, KM12, read-out: growth inhibition (GI%) and cytotoxicity (negative values)
In short: as §1

[11] = test system: RPMI-8226 (leukemia cell line); assay: NCI-60 single-dose assay; format: cell-based, human; settings: Homo sapiens, RPMI-8226, read-out: growth inhibition (GI%) and cytotoxicity (negative values)
In short: as §1

[12] = test system: EKVX (non-small cell lung cancer cell line); assay: NCI-60 single-dose assay; format: cell-based, human; settings: Homo sapiens, read-out: growth inhibition (GI%) and cytotoxicity (negative values)
In short: as §1

[13] = test system: SN12C (renal cancer cell line); assay: NCI-60 single-dose assay; format: cell-based, human; settings: Homo sapiens, read-out: growth inhibition (GI%) and cytotoxicity (negative values)
In short: as §1

[14] = test system: SK-MEL-2 (melanoma cell line); assay: NCI-60 single-dose assay; format: cell-based, human; settings: Homo sapiens, SK-MEL-2, read-out: growth inhibition (GI%) and cytotoxicity (negative values)
In short: as §1

M14 (melanoma cell line) = assay: NCI-60 single-dose assay; format: cell-based, human; settings: for growth inhibition (GI%) and cytotoxicity (negative values): human; for inhibition at 10 µM: Homo sapiens, M14, read-out: growth inhibition (GI%) and cytotoxicity (negative values)
In short: as §1

[15] = test system: SK-MEL-28 (melanoma cell line); assay: NCI-60 single-dose assay; format: cell-based, human; settings: Homo sapiens, SK-MEL-28, read-out: growth inhibition (GI%) and cytotoxicity (negative values)
In short: as §1

[16] = test system: CAKI-1 (renal cancer cell line); assay: NCI-60 single-dose assay; format: cell-based, human; settings: Homo sapiens, CAKI-1, read-out: growth inhibition (GI%) and cytotoxicity (negative values)
In short: as §1

[17] = test system: HT29 (colon cancer cell line); assay: NCI-60 single-dose assay; format: cell-based, human; settings: for inhibition at 10 µM: Homo sapiens, HT-29, read-out: growth inhibition (GI%) and cytotoxicity (negative values)
In short: as §1

[18] = test system: IAV strain A/PR/8/34 (H1N1); settings: preliminary screening
[19] = test system: MCF-7 (breast cancer cell line); assay: NCI-60 single-dose assay; format: cell-based, human; settings: Homo sapiens, MCF7, read-out: growth inhibition (GI%) and cytotoxicity (negative values), MCF-7, 10^−5 M
In short: as §1

[20] = test system: RXF 393 (renal cancer cells); assay: NCI-60 five-dose assay; format: cell-based, human; settings: Homo sapiens, five-dose screen
[21] = preliminary screening (50, 5, 0.5 μM), Vero TMPRSS, read-out: SARS‐CoV‐2/Vero TMPRSS EC50
[22] = SARS-CoV-2, VERO TMPRSS cells, 24 h, full dose-response, read-out: EC50

SMILES | CC50 (in vitro) [µM] | EC50 [1, 21] [µM] | CC50 at 48 h [2] [µM] | inhibition at 10 µM [3] [%] | inhibition at 10 µM [5] [%] | inhibition at 10 µM [6] [%] | inhibition at 10 µM [7] [%] | growth inhibition (GI%) and cytotoxicity (negative values) [8] [%] | inhibition at 10 µM [9] [%] | inhibition at 10 µM [10] [%] | inhibition at 10 µM [11] [%] | inhibition at 10 µM [12] [%] | inhibition at 10 µM [13] [%] | inhibition at 10 µM [14] [%] | inhibition at 10 µM [15] [%] | IAV/MDCK SI [18] | inhibition at 10 µM [4] [%] | inhibition at 10 µM [19] [%] | inhibition at 10 µM (M14 (melanoma cell line)) [%] | inhibition at 10 µM [17] [%] | also measured
COc1ccccc1N1CCN(CCNC(=O)c2[nH]c3c(c2Cl)CCCc2ccccc2-3)CC1 [Compound 5] | 11 | 34.9 | 24.3 | 62.2 | < 60 | 89.4 | 67.4 | −62.59 | < 60 | 67.7 | < 60 | 94.2 | 71.8 | < 60 | < 60 | – | – | – | – | – | growth inhibition (GI%) and cytotoxicity (negative values) [4]: −8.91%; growth inhibition (GI%) and cytotoxicity (negative values) (M14 (melanoma cell line)): −22.16%; inhibition at 10 µM [16]: 77.9%; growth inhibition (GI%) and cytotoxicity (negative values) ([17]; human): −17.44%
O=C(NCCN1CCN(c2ccc(Cl)cc2)CC1)c1c(Cl)[nH]c2c1CCCc1ccccc1-2 [Compound 13] | – | > 0.5 | 57.9 | – | < 60 | – | < 60 | −21.64 | < 60 | < 60 | 67.4 | – | – | < 60 | < 60 | 5.45 | 69.6 | < 60 | < 60 | 69.2 | selectivity index (SI) ([1]; SARS-CoV-2, VERO TMPRSS cells): 150.00; EC50 [1, 22]: 0.66 µM
N#Cc1ccccc1N1CCN(CCNC(=O)c2c(Cl)[nH]c3c2CCCc2ccccc2-3)CC1 [Compound 18, 2-Chloro-N-(2-(4-(2-cyanophenyl)piperazin-1-yl)ethyl)-1,4,5,6-tetrahydrobenzo[6,7]cyclohepta[1,2-b]pyrrole-3-carboxamide] | 13.9 | – | 15.5 | < 60 | < 60 | < 60 | < 60 | −67.02 | < 60 | < 60 | 69.1 | 92.8 | < 60 | < 60 | < 60 | 0.28 | 74.3 | 78.5 | < 60 | 64.2 | inhibition at 10 µM [16]: 62.7%
O=C(NCCN1CCN(c2ccccc2)CC1)c1c(Cl)[nH]c2c1CCCc1ccccc1-2 [Compound 12, 2-Chloro-N-(2-(4-phenylpiperazin-1-yl)ethyl)-1,4,5,6-tetrahydrobenzo[6,7]cyclohepta[1,2-b]pyrrole-3-carboxamide] | 32.1 | 2.26 | 34.2 | – | < 60 | – | < 60 | −7.83 | < 60 | < 60 | < 60 | 72.3 | – | < 60 | < 60 | 9.18 | 67.2 | 60.9 | < 60 | 65.5 | selectivity index (SI) ([1]; SARS-CoV-2, VERO TMPRSS cells): 63.63; EC50 [1, 22]: 1.17 µM
O=C(NCCN1CCN(c2ccccc2Cl)CC1)c1c(Cl)[nH]c2c1CCCc1ccccc1-2 [Compound 14] | 15.6 | – | 30.2 | – | < 60 | – | < 60 | −3.84 | < 60 | < 60 | 60.9 | 72.7 | – | < 60 | < 60 | – | 71.7 | < 60 | < 60 | < 60 | –
COc1ccccc1N1CCN(CCNC(=O)c2c(Cl)[nH]c3c2CCCc2ccccc2-3)CC1 [Compound 15] | 8.29 | 40.6 | 9.43 | < 60 | – | < 60 | 60.1 | −75.22 | 70.1 | < 60 | 70.1 | 81.7 | < 60 | < 60 | < 60 | 0.47 | 86.6 | 73 | 84.8 | 79.4 | growth inhibition (GI%) and cytotoxicity (negative values) [5]: −18.77%; inhibition at 10 µM [16]: 61%
CCOc1ccccc1N1CCN(CCNC(=O)c2c(Cl)[nH]c3c2CCCc2ccccc2-3)CC1 [Compound 17] | 8.13 | – | 16.4 | < 60 | – | 62.1 | < 60 | −88.73 | 90.3 | < 60 | < 60 | 87.5 | 60.7 | < 60 | 71.5 | 0.23 | – | 82.2 | – | 81.5 | GI50 [20]: 2.57 µM; growth inhibition (GI%) and cytotoxicity (negative values) [4]: −8.21%; growth inhibition (GI%) and cytotoxicity (negative values) [5]: −35.63%; growth inhibition (GI%) and cytotoxicity (negative values) (M14 (melanoma cell line)): −7.74%; inhibition at 10 µM [16]: 71.6%
